Source: PubChem BioAssay AID2060499 (Molecular Pharmacology Branch, DTP, NCI, 2025)

Test system: 777334-354-R2-J4-PDC tumor spheroids with HUVEC/MSC, viability
Assay: Anticancer human tumor 777334-354-R2-J4-PDC patient-derived pancreatic adenocarcinoma cell line growth inhibition [GQUAD]
Settings: for IC50: curve of first compound; for viability, T/C: stronger effect = lower value
Method in brief: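 Viability of tumor cells grown as complex spheroids with endothelial and stromal cells, exposed to drug combinations. Top concentration at or near clinical Cmax (else 10 microM), diluted in half-log increments.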

[1] = second compound 0.0316 µM, first compound 0.0316 µM
[2] = second compound 0.0316 µM, first compound 0.1 µM
[3] = second compound 0.0316 µM, first compound 0.316 µM
[4] = second compound 0.0316 µM, first compound 1 µM
[5] = second compound 0.0316 µM, first compound 3.16 µM
[6] = second compound 0.0316 µM, first compound 10 µM
[7] = second compound 0.1 µM, first compound 0.0316 µM
[8] = second compound 0.1 µM, first compound 0.1 µM
[9] = second compound 0.1 µM, first compound 0.316 µM
[10] = second compound 0.1 µM, first compound 1 µM
[11] = second compound 0.1 µM, first compound 3.16 µM
[12] = second compound 0.1 µM, first compound 10 µM
[13] = second compound 0.316 µM, first compound 0.0316 µM
[14] = second compound 0.316 µM, first compound 0.1 µM
[15] = second compound 0.316 µM, first compound 0.316 µM
[16] = second compound 0.316 µM, first compound 1 µM
[17] = second compound 0.316 µM, first compound 3.16 µM
[18] = second compound 0.316 µM, first compound 10 µM
[19] = second compound 1 µM, first compound 0.0316 µM
[20] = second compound 1 µM, first compound 0.1 µM
[21] = second compound 1 µM, first compound 0.316 µM
[22] = second compound 1 µM, first compound 1 µM
[23] = second compound 1 µM, first compound 3.16 µM
[24] = second compound 1 µM, first compound 10 µM
[25] = second compound 3.16 µM, first compound 0.0316 µM
[26] = second compound 3.16 µM, first compound 0.1 µM
[27] = second compound 3.16 µM, first compound 0.316 µM
[28] = second compound 3.16 µM, first compound 1 µM
[29] = second compound 3.16 µM, first compound 3.16 µM
[30] = second compound 3.16 µM, first compound 10 µM
[31] = second compound 10 µM, first compound 0.0316 µM
[32] = second compound 10 µM, first compound 0.1 µM
[33] = second compound 10 µM, first compound 0.316 µM
[34] = second compound 10 µM, first compound 1 µM
[35] = second compound 10 µM, first compound 3.16 µM
[36] = second compound 10 µM, first compound 10 µM
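Note: spheroids exposed to compounds for 7 days before readout.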

Question: What does the source list for `C=CC(=O)N1CCN(c2nc(=O)n(-c3c(C)ccnc3C(C)C)c3nc(-c4c(O)cccc4F)c(F)cc23)C(C)C1` (stereo not drawn) + Cc1[nH]c2ccc(F)cc2c1-c1nc2c3cccnc3c3ncccc3c2[nH]1?
Answer: IC50 (second compound 0.0316 µM): > 10 µM; IC50 (second compound 0.1 µM): > 10 µM; IC50 (second compound 0.316 µM): > 10 µM; IC50 (second compound 1 µM): > 10 µM; IC50 (second compound 3.16 µM): < 0.0316 µM; IC50 (second compound 10 µM): < 0.0316 µM; viability, T/C [1]: 108%; viability, T/C [2]: 86.6%; viability, T/C [3]: 111%; viability, T/C [4]: 95.7%; viability, T/C [5]: 118%; viability, T/C [6]: 114%; viability, T/C [7]: 99.8%; viability, T/C [8]: 89.5%; viability, T/C [9]: 105%; viability, T/C [10]: 91.3%; viability, T/C [11]: 102%; viability, T/C [12]: 120%; viability, T/C [13]: 82.6%; viability, T/C [14]: 91.8%; viability, T/C [15]: 92%; viability, T/C [16]: 108%; viability, T/C [17]: 110%; viability, T/C [18]: 97.1%; viability, T/C [19]: 81.3%; viability, T/C [20]: 79.8%; viability, T/C [21]: 91.6%; viability, T/C [22]: 91.5%; viability, T/C [23]: 98.9%; viability, T/C [24]: 94.3%; viability, T/C [25]: 34.3%; viability, T/C [26]: 44.6%; viability, T/C [27]: 40.6%; viability, T/C [28]: 41%; viability, T/C [29]: 47%; viability, T/C [30]: 40.4%; viability, T/C [31]: 28.9%; viability, T/C [32]: 31.5%; viability, T/C [33]: 34.7%; viability, T/C [34]: 22.7%; viability, T/C [35]: 22.9%; viability, T/C [36]: 46.4%

Question: Which results are given for `CC(C)n1c(=O)n(C)c2cnc3cc(F)c(-c4ccc(OCCCN5CCCCC5)nc4)cc3c21` + Cc1[nH]c2ccc(F)cc2c1-c1nc2c3cccnc3c3ncccc3c2[nH]1?
Answer: IC50 (second compound 0.0316 µM): > 10 µM; IC50 (second compound 0.1 µM): > 10 µM; IC50 (second compound 0.316 µM): > 10 µM; IC50 (second compound 1 µM): > 10 µM; IC50 (second compound 3.16 µM): < 0.0316 µM; IC50 (second compound 10 µM): < 0.0316 µM; viability, T/C [1]: 106%; viability, T/C [2]: 108%; viability, T/C [3]: 113%; viability, T/C [4]: 115%; viability, T/C [5]: 115%; viability, T/C [6]: 96%; viability, T/C [7]: 105%; viability, T/C [8]: 89.5%; viability, T/C [9]: 131%; viability, T/C [10]: 103%; viability, T/C [11]: 118%; viability, T/C [12]: 98%; viability, T/C [13]: 101%; viability, T/C [14]: 99.5%; viability, T/C [15]: 90.3%; viability, T/C [16]: 110%; viability, T/C [17]: 99.1%; viability, T/C [18]: 93.5%; viability, T/C [19]: 90.8%; viability, T/C [20]: 84.7%; viability, T/C [21]: 90.6%; viability, T/C [22]: 101%; viability, T/C [23]: 93.8%; viability, T/C [24]: 70.8%; viability, T/C [25]: 30.8%; viability, T/C [26]: 50.4%; viability, T/C [27]: 40%; viability, T/C [28]: 33.1%; viability, T/C [29]: 28.5%; viability, T/C [30]: 19.9%; viability, T/C [31]: 28.7%; viability, T/C [32]: 25.2%; viability, T/C [33]: 41.9%; viability, T/C [34]: 28.4%; viability, T/C [35]: 27.1%; viability, T/C [36]: 13.5%

Question: What does the source list for `Cn1ncnc1[C@H]1c2n[nH]c(=O)c3cc(F)cc(c23)N[C@@H]1c1ccc(F)cc1` + Cc1[nH]c2ccc(F)cc2c1-c1nc2c3cccnc3c3ncccc3c2[nH]1?
Answer: IC50 (second compound 0.0316 µM): > 0.316 µM; IC50 (second compound 0.1 µM): > 0.316 µM; IC50 (second compound 0.316 µM): > 0.316 µM; IC50 (second compound 1 µM): > 0.316 µM; IC50 (second compound 3.16 µM): < 0.000999 µM; IC50 (second compound 10 µM): < 0.000999 µM; viability, T/C (second compound 0.0316 µM, first compound 0.000999 µM): 105%; viability, T/C (second compound 0.0316 µM, first compound 0.00316 µM): 87.4%; viability, T/C (second compound 0.0316 µM, first compound 0.00999 µM): 92%; viability, T/C [1]: 95.9%; viability, T/C (second compound 0.0316 µM, first compound 0.0999 µM): 81.6%; viability, T/C [3]: 90.3%; viability, T/C (second compound 0.1 µM, first compound 0.000999 µM): 110%; viability, T/C (second compound 0.1 µM, first compound 0.00316 µM): 102%; viability, T/C (second compound 0.1 µM, first compound 0.00999 µM): 99.4%; viability, T/C [7]: 83.9%; viability, T/C (second compound 0.1 µM, first compound 0.0999 µM): 94.5%; viability, T/C [9]: 88.2%; viability, T/C (second compound 0.316 µM, first compound 0.000999 µM): 94.7%; viability, T/C (second compound 0.316 µM, first compound 0.00316 µM): 97.9%; viability, T/C (second compound 0.316 µM, first compound 0.00999 µM): 95.1%; viability, T/C [13]: 85.5%; viability, T/C (second compound 0.316 µM, first compound 0.0999 µM): 84%; viability, T/C [15]: 74.7%; viability, T/C (second compound 1 µM, first compound 0.000999 µM): 75.4%; viability, T/C (second compound 1 µM, first compound 0.00316 µM): 91.9%; viability, T/C (second compound 1 µM, first compound 0.00999 µM): 91.2%; viability, T/C [19]: 81.9%; viability, T/C (second compound 1 µM, first compound 0.0999 µM): 82.1%; viability, T/C [21]: 65.5%; viability, T/C (second compound 3.16 µM, first compound 0.000999 µM): 33.3%; viability, T/C (second compound 3.16 µM, first compound 0.00316 µM): 33.7%; viability, T/C (second compound 3.16 µM, first compound 0.00999 µM): 44.6%; viability, T/C [25]: 22.8%; viability, T/C (second compound 3.16 µM, first compound 0.0999 µM): 28.6%; viability, T/C [27]: 43.8%; viability, T/C (second compound 10 µM, first compound 0.000999 µM): 35.3%; viability, T/C (second compound 10 µM, first compound 0.00316 µM): 37.6%; viability, T/C (second compound 10 µM, first compound 0.00999 µM): 41.8%; viability, T/C [31]: 28.7%; viability, T/C (second compound 10 µM, first compound 0.0999 µM): 37.1%; viability, T/C [33]: 31.5%

Question: How did the IC50 (second compound 0.0316 µM) turn out when `O=C(c1cc(Cc2n[nH]c(=O)c3ccccc23)ccc1F)N1CCN(C(=O)C2CC2)CC1` + Cc1[nH]c2ccc(F)cc2c1-c1nc2c3cccnc3c3ncccc3c2[nH]1 was run?
Answer: > 10 µM

Question: And the IC50 (second compound 0.1 µM)?
Answer: > 10 µM

Question: What about the IC50 (second compound 0.316 µM) of the same molecule?
Answer: > 10 µM

Question: What about the IC50 (second compound 1 µM) of the same molecule?
Answer: > 10 µM

Question: And the IC50 (second compound 3.16 µM)?
Answer: < 0.0316 µM

Question: What about the IC50 (second compound 10 µM) of the same molecule?
Answer: < 0.0316 µM

Question: What about the viability, T/C [1] of the same molecule?
Answer: 95.4%

Question: What about the viability, T/C [2] of the same molecule?
Answer: 95.8%

Question: And the viability, T/C [3]?
Answer: 102%

Question: And the viability, T/C [4]?
Answer: 98.7%

Question: And the viability, T/C [5]?
Answer: 93.6%

Question: And the viability, T/C [6]?
Answer: 83.1%

Question: What about the viability, T/C [7] of the same molecule?
Answer: 98.6%

Question: What about the viability, T/C [8] of the same molecule?
Answer: 98.9%

Question: What about the viability, T/C [9] of the same molecule?
Answer: 99.5%

Question: What about the viability, T/C [10] of the same molecule?
Answer: 92.5%

Question: And the viability, T/C [11]?
Answer: 103%

Question: And the viability, T/C [12]?
Answer: 78.7%

Question: And the viability, T/C [13]?
Answer: 99.2%

Question: And the viability, T/C [14]?
Answer: 98.7%

Question: And the viability, T/C [15]?
Answer: 95.1%

Question: And the viability, T/C [16]?
Answer: 103%

Question: And the viability, T/C [17]?
Answer: 106%

Question: And the viability, T/C [18]?
Answer: 76%

Question: And the viability, T/C [19]?
Answer: 75.5%

Question: What about the viability, T/C [20] of the same molecule?
Answer: 89.7%

Question: What about the viability, T/C [21] of the same molecule?
Answer: 91.6%

Question: And the viability, T/C [22]?
Answer: 82.9%

Question: What about the viability, T/C [23] of the same molecule?
Answer: 89.2%

Question: And the viability, T/C [24]?
Answer: 82.5%

Question: And the viability, T/C [25]?
Answer: 37.8%

Question: What about the viability, T/C [26] of the same molecule?
Answer: 39.2%

Question: And the viability, T/C [27]?
Answer: 36.4%

Question: And the viability, T/C [28]?
Answer: 38.2%

Question: What about the viability, T/C [29] of the same molecule?
Answer: 43%

Question: What about the viability, T/C [30] of the same molecule?
Answer: 32.8%

Question: And the viability, T/C [31]?
Answer: 24.9%

Question: What about the viability, T/C [32] of the same molecule?
Answer: 35.9%

Question: What about the viability, T/C [33] of the same molecule?
Answer: 39%

Question: What about the viability, T/C [34] of the same molecule?
Answer: 33.7%

Question: What about the viability, T/C [35] of the same molecule?
Answer: 36.5%

Question: What about the viability, T/C [36] of the same molecule?
Answer: 33%
